In US5486595A, “Tumor necrosis factor inhibitors” (Centecor, Inc., priority 1994, dated 1996):
Where a SMILES comes first, the peptide text is derived from it.

Molecular target: T1, human TNFα (Homo sapiens, UniProt P01375)
T1 construct: purchased Biosource, Camarillo, Calif
Experiment: p55 Receptor/IgG Fusion Protein Binding Assay (inhibition of TNFα capture by p55-Ig coated plate)
Conditions: peptide 1 mM; TNFα 25 ng/ml; read-out: inhibition of binding of TNFα to p55TNFr-IgG chimeric construct
Procedure: This assay was designed to identify peptides which bind to human TNFα and thereby prevent the capture of the TNFα by a microtiter plate coated with p55-Ig fusion protein. A constant concentration of human TNFα is preincubated with the test peptide and then incubated on the p55-Ig coated microtiter wells. Bound TNFα is detected using a specific antisera and an alkaline phosphatase-conjugated probe.
A 96-well, U-bottom polyvinylchloride microtiter plate was coated with 50 μl/well of p55-Ig fusion protein at 5 μg/ml in 0.01M sodium phosphate, 0.15M sodium chloride (PBS) by incubation overnight at 4° C. or 2 hours at 37° C. The fusion protein, which consists of a p55 TNF receptor protein portion and an IgG portion, can be produced as disclosed in U.S. application Ser. No. 08/010,406 filed Jan. 29, 1993 which is incorporated herein by reference. The plate was washed three times with 0.05% Tween-20 in PBS, then blocked, by adding 150 μl/well of assay buffer (10 mM N-2-hydroxyethylpiperazine-N'-[…] (HEPES) pH 7.2, containing 0.1% porcine gelatin, 0.1% Tween-80, and 0.01% sodium azide) and continuing incubation for 1 hour at 37° C. or at 4° C. for 1-7 days.
Lyophilized peptides to be tested were weighed in tared 12×75 mm polystyrene tubes and reconstituted to a concentration of 1.2 mM with assay buffer. Each suspension was sonicated in a water bath for 1-5 minutes and vortexed 15-30 seconds to disperse large particles. Serial dilutions of each peptide suspension were prepared using assay buffer in a 96-well polystyrene microtiter plate. Additional wells received Fab fragment of the mouse/human monoclonal anti-human TNFα antibody cA2 (positive control) or assay buffer (negative control). […] The polystyrene dilution plate was then sealed and incubated 1 hour at room temperature on an orbital mixer set at moderate speed.
Following the sample preincubation, blocker was discarded from the p55-Ig coated plate and blotted dry. Aliquots (50 μl) of each peptide or control were transferred into duplicate wells on the p55-Ig coated plate which was then sealed and incubated i hour at 37° C. Duplicate wells containing only assay buffer were included as a plate blank. After incubation the p55-Ig plate was washed three times with 0.05% Tween-20 in PBS.
To detect TNFα captured by the p55-Ig plate, all wells were incubated in succession with polyclonal rabbit anti-human TNFα (Genzyme, Boston, Mass.; 1:500 in assay buffer, 50 μl/well), biotinylated goat anti-rabbit Ig (H&L) (Vector Laboratories, Burlingame, Calif.; 1 μg/ml in assay buffer, 50 μl/well) and streptavidin-alkaline phosphatase conjugate (Pierce, Rockford, Ill.; 1 μg/ml in assay buffer, 50 μl/well). All incubations were for 1 hour at 37° C. and after each incubation the plate was washed three times with 0.05% Tween-20 in PBS. Fifty microliters of alkaline phosphatase substrate solution (alkaline buffer (Sigma, St. Louis, Mo.) diluted 1:500 in deionized water plus one 5 mg tablet of p-nitrophenyl phosphate (Sigma, St. Louis, Mo.) per 5 ml of diluted buffer) was added to all wells and incubation continued for 20 minutes at room temperature. Color development was stopped by adding to all wells 50 μl of 3N sodium hydroxide. The optical density (OD) at 405 nm was measured on a microtiter plate reader (Molecular Devices Vmax plate reader), with the plate blank wells subtracted as background. The activity of each peptide was then expressed as the percent inhibition of TNFα capture by the p55-Ig plate, relative to the amount of TNFα captured in wells containing only assay buffer (negative control), as follows: % inhibition=100-((mean OD peptide/mean OD negative control)×100).
The inhibition of binding of TNFα to p55TNFr-IgG chimeric construct was performed as described above using several embodiments of the invention. The peptides were tested at a concentration of 1 mM.

T1 sequence (P01375 77-233 limits assumed): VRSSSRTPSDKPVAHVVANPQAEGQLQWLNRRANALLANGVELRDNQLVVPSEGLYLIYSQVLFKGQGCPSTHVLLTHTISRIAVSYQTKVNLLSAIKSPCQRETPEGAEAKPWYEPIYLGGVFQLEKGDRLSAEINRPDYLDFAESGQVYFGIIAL

Structure (SMILES)	inhibition at 1000 µM
CC(C)C[C@H](NC(=O)[C@H](CC(N)=O)NC(=O)[C@H](CCC(=O)O)NC(=O)[C@H](CO)NC(=O)[C@H](Cc1c[nH]c2ccccc12)NC(=O)[C@H](Cc1ccc(O)cc1)NC(=O)[C@H](Cc1c[nH]cn1)NC(=O)[C@H](CCCNC(=N)N)NC(=O)[C@H](Cc1ccc(O)cc1)NC(=O)[C@H](CCC(N)=O)NC(=O)[C@H](CC(N)=O)NC(=O)[C@H](CCCCN)NC(=O)[C@@H](N)CCCNC(=N)N)C(=O)N[C@@H](Cc1ccccc1)C(=O)N[C@@H](CCC(N)=O)C(N)=O [SEQ ID NO:10]	49%
CC(C)[C@H](NC(=O)[C@@H](NC(=O)[C@@H](N)CC(=O)O)[C@@H](C)O)C(=O)N[C@@H](C)C(=O)NCC(=O)N[C@@H](C)C(=O)N[C@@H](CCCNC(=N)N)C(=O)N[C@@H](CCCCN)C(=O)N[C@@H](CC(N)=O)C(=O)N[C@@H](CCC(N)=O)C(=O)N[C@@H](Cc1ccc(O)cc1)C(=O)N[C@@H](CCCNC(=N)N)C(=O)N[C@@H](Cc1c[nH]cn1)C(=O)N[C@@H](Cc1ccc(O)cc1)C(=O)N[C@@H](Cc1c[nH]c2ccccc12)C(N)=O [SEQ ID NO:9, Aspartyl-threonyl-valyl-alanyl-glycyl-alanyl-arginyl-lysyl-asparaginyl-glutaminyl-tyrosyl-arginyl-histidyl-tyrosyl-tryptophan Amide] (H-DTVAGARKNQYRHYW-NH2)	30%
CC(C)C[C@H](N)C(=O)N[C@@H](Cc1ccc(O)cc1)C(=O)N[C@@H](CC(N)=O)C(=O)N[C@@H](CC(=O)O)C(=O)N[C@@H](C)C(=O)N1CCC[C@H]1C(=O)NCC(=O)N1CCC[C@H]1C(=O)NCC(=O)N[C@@H](CCC(N)=O)C(=O)N[C@@H](CC(=O)O)C(=O)N[C@H](C(=O)N[C@@H](CC(=O)O)C(=O)N[C@@H](C)C(=O)N[C@@H](CCCNC(=N)N)C(N)=O)[C@@H](C)O [SEQ ID NO:1, Leucyl-tyrosyl-asparaginyl-aspartyl-alanyl-prolyl-glycyl-prolyl-glycyl-glutaminyl-aspartyl-threonyl-aspartyl-alanyl-arginine Amide] (H-LYNDAPGPGQDTDAR-NH2)	46%
C[C@H](NC(=O)[C@H](CCC(=O)O)NC(=O)[C@H](CCCNC(=N)N)NC(=O)[C@H](C)NC(=O)[C@H](CC(=O)O)NC(=O)[C@@H](NC(=O)[C@H](CC(=O)O)NC(=O)[C@H](CCC(N)=O)NC(=O)CNC(=O)[C@@H]1CCCN1C(=O)CNC(=O)[C@@H]1CCCN1C(=O)[C@H](C)NC(=O)[C@@H](N)CC(=O)O)[C@@H](C)O)C(=O)N[C@@H](CCC(=O)O)C(N)=O [SEQ ID NO:2] (H-DAPGPGQDTDAREAE-NH2)	62%
CC(C)C[C@H](NC(=O)[C@H](C)NC(=O)[C@H](CC(C)C)NC(=O)[C@H](CO)NC(=O)[C@H](C)NC(=O)[C@H](CC(N)=O)NC(=O)[C@H](Cc1ccccc1)NC(=O)[C@H](C)N)C(=O)N[C@@H](CC(N)=O)C(=O)NCC(=O)N[C@H](C(=O)N[C@H](C(=O)N[C@@H](Cc1c[nH]cn1)C(=O)N[C@@H](CC(C)C)C(=O)N[C@@H](CO)C(N)=O)C(C)C)[C@@H](C)O [SEQ ID NO:14] (H-AFNASLALNGTVHLS-NH2)	29%
C[C@H](NC(=O)[C@H](CCC(=O)O)NC(=O)[C@H](CCCNC(=N)N)NC(=O)[C@H](C)NC(=O)[C@H](CC(=O)O)NC(=O)[C@@H](NC(=O)[C@H](CC(=O)O)NC(=O)[C@H](CCC(N)=O)NC(=O)CNC(=O)[C@@H]1CCCN1C(=O)CN)[C@@H](C)O)C(=O)N[C@@H](CCC(=O)O)C(=O)N[C@@H](CO)C(=O)NCC(=O)N[C@@H](CO)C(N)=O [SEQ ID NO:3, Glycyl-prolyl-glycyl-glutaminyl-aspartyl-threonyl-aspartyl-alanyl-arginyl-glutamyl-alanyl-glutamyl-seryl-glycyl-serine Amide] (H-GPGQDTDAREAESGS-NH2)	53%

More lines, now with the values ahead:

inhibition at 1000 µM	Structure (SMILES)
73%	C[C@H](NC(=O)[C@@H](NC(=O)[C@H](CO)NC(=O)[C@@H]1CCCN1C(=O)[C@H](CCC(=O)O)NC(=O)[C@@H]1CCCN1C(=O)[C@@H](NC(=O)[C@@H]1CCCN1C(=O)[C@H](CCC(N)=O)NC(=O)[C@@H](N)[C@@H](C)O)[C@@H](C)O)[C@@H](C)O)C(=O)N1CCC[C@H]1C(=O)N[C@@H](CO)C(=O)N[C@H](C(=O)N[C@@H](CO)C(=O)N[C@@H](Cc1ccccc1)C(N)=O)[C@@H](C)O [SEQ ID NO:59] (H-TQPTPEPSTAPSTSF-NH2)
59%	CC(C)C[C@H](NC(=O)[C@H](Cc1ccccc1)NC(=O)[C@H](Cc1ccccc1)NC(=O)CNC(=O)[C@H](C)NC(=O)[C@H](Cc1c[nH]cn1)NC(=O)[C@H](C)NC(=O)[C@@H](NC(=O)[C@H](C)NC(=O)[C@@H](NC(=O)[C@@H](N)[C@@H](C)O)C(C)C)[C@@H](C)O)C(=O)N[C@@H](CCCNC(=N)N)C(=O)N[C@@H](CCC(=O)O)C(=O)N[C@@H](CC(N)=O)C(=O)N[C@@H](CCC(=O)O)C(N)=O [SEQ ID NO:17] (H-TVATAHAGFFLRENE-NH2)
48%	CC(C)C[C@H](NC(=O)[C@H](Cc1ccccc1)NC(=O)[C@H](Cc1ccccc1)NC(=O)CNC(=O)[C@H](C)NC(=O)[C@H](Cc1c[nH]cn1)NC(=O)[C@H](C)NC(=O)[C@@H](NC(=O)[C@H](C)NC(=O)[C@@H](NC(=O)[C@@H](NC(=O)[C@H](CC(N)=O)NC(=O)[C@H](CCC(N)=O)NC(=O)[C@@H](N)CCCCN)[C@@H](C)O)C(C)C)[C@@H](C)O)C(=O)N[C@@H](CCCNC(=N)N)C(N)=O [SEQ ID NO:16, Lysyl-glutaminyl-asparaginyl-threonyl-valyl-alanyl-threonyl-alanyl-histidyl-alanyl-glycyl-phenylalanyl-phenylalanyl-leucyl-arginine Amide] (H-KQNTVATAHAGFFLR-NH2)
78%	CC(C)C[C@H](NC(=O)[C@H](CCCNC(=N)N)NC(=O)[C@H](C)NC(=O)[C@@H](NC(=O)[C@H](CO)NC(=O)CNC(=O)[C@@H]1CCCN1C(=O)[C@@H](N)CCC(=O)O)[C@@H](C)O)C(=O)N[C@@H](CCCNC(=N)N)C(=O)N[C@@H](CCC(=O)O)C(=O)N[C@@H](Cc1ccc(O)cc1)C(=O)N[C@@H](Cc1ccc(O)cc1)C(=O)N[C@@H](CC(=O)O)C(=O)N[C@@H](CCC(N)=O)C(=O)N[C@H](C(N)=O)[C@@H](C)O [SEQ ID NO:27] (H-EPGSTARLREYYDQT-NH2)
64%	CC(C)[C@H](N)C(=O)N[C@@H](Cc1ccccc1)C(=O)N[C@@H](C)C(=O)N[C@H](C(=O)N[C@@H](CCCCN)C(=O)N[C@H](C(=O)N[C@@H](CO)C(=O)N[C@@H](CC(=O)O)C(=O)N[C@H](C(=O)N[C@H](C(=O)N[C@@H](C)C(=O)N[C@@H](CC(=O)O)C(=O)N[C@@H](CO)C(=O)N[C@@H](C)C(=O)N[C@@H](CCC(=O)O)C(N)=O)C(C)C)[C@@H](C)O)[C@@H](C)O)[C@@H](C)O [SEQ ID NO:32] (H-VFATKTSDTVADSAE-NH2)
48%	CC(C)C[C@H](NC(=O)[C@H](Cc1ccccc1)NC(=O)[C@H](Cc1ccccc1)NC(=O)CNC(=O)[C@H](C)NC(=O)[C@H](Cc1c[nH]cn1)NC(=O)[C@H](C)NC(=O)[C@@H](NC(=O)[C@H](C)NC(=O)[C@@H](NC(=O)[C@@H](NC(=O)[C@H](CC(N)=O)NC(=O)[C@H](CCC(N)=O)NC(=O)[C@H](CCCCN)NC(=O)[C@H](CCC(=O)O)NC(=O)[C@@H](N)CCC(N)=O)[C@@H](C)O)C(C)C)[C@@H](C)O)C(=O)N[C@@H](CCCNC(=N)N)C(=O)N[C@@H](CCC(=O)O)C(=O)N[C@@H](CC(N)=O)C(=O)N[C@@H](CCC(=O)O)C(N)=O [SEQ ID NO:15, Glutaminyl-glutamyl-lysyl-glutaminyl-asparaginyl-threonyl-valyl-alanyl-threonyl-alanyl-histidyl-alanyl-glycyl-phenylalanyl-phenylalanyl-leucyl-arginyl-glutamyl-asparaginyl-glutamic Acid Amide] (H-QEKQNTVATAHAGFFLRENE-NH2)
